Assay results from publication PMC9497102, “Thiosemicarbazone Derivatives Developed to Overcome COTI-2 Resistance” (Cancers, 2022).

Tested on: SW480 cells
Experiment: Detection of paraptotic vesicles (phase contrast microscopy)
Type: cell-based, human
Settings: 24 h
Method: SW480 and SW480/Coti cells were seeded at a density of 2 × 10^4 per well in 24-well plates and left to recover for 24 h. This was followed by drug treatment at the indicated concentration for 24 h. Images were captured with phase contrast using a Nikon eclipse Ti-e fluorescence microscope and a DS Fi1c camera. Cells containing vesicles were counted in ImageJ and plotted in GraphPad Prism as the percentage of all cells.

Q: With `CN(C)C(=S)NN=C1CCCc2cccnc21` (mixture of isomers) [COTI-NMe2, 2-(6,7-Dihydroquinolin-8(5H)-ylidene)-N^4,N^4-dimethylhydrazine-1-carbothioamide] as the compound, how does the “cells presenting paraptotic features” value (0.1 µM) read?
A: 100%

Q: What about the “cells presenting paraptotic features” value (1 µM) of the same compound?
A: 100%
